# Results taken from PubChem BioAssay (NCI).
#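 Briefly, cells in 96-well plates were exposed to five compound concentrations for 48 h, and endpoints were estimated by linear interpolation. TGI is the concentration that stops growth completely.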
# Experiments:
# Test in all cases: growth of human tumour cells (NCI), 48 h
# A498 renal = system: A498 renal
# COLO 205 colon = system: COLO 205 colon
# DU-145 prostate = system: DU-145 prostate
# HL-60(TB) leukemia = system: HL-60(TB) leukemia
# KM12 colon = system: KM12 colon
# MDA-MB-435 = system: MDA-MB-435
# NCI-H226 lung = system: NCI-H226 lung
# OVCAR-5 ovarian = system: OVCAR-5 ovarian
# RXF 393 renal = system: RXF 393 renal
# SF-539 CNS = system: SF-539 CNS
# SK-MEL-5 melanoma = system: SK-MEL-5 melanoma
# SR leukemia = system: SR leukemia
# UACC-62 melanoma = system: UACC-62 melanoma
# UO-31 renal = system: UO-31 renal
Structure (SMILES),TGI (A498 renal) [µM],TGI (COLO 205 colon) [µM],TGI (DU-145 prostate) [µM],TGI (HL-60(TB) leukemia) [µM],TGI (KM12 colon) [µM],TGI (MDA-MB-435) [µM],TGI (NCI-H226 lung) [µM],TGI (OVCAR-5 ovarian) [µM],TGI (RXF 393 renal) [µM],TGI (SF-539 CNS) [µM],TGI (SK-MEL-5 melanoma) [µM],TGI (SR leukemia) [µM],TGI (UACC-62 melanoma) [µM],TGI (UO-31 renal) [µM]
CCC(=O)C(CCN1CCC2(CCCc3ccccc32)CC1)(c1ccccc1)c1ccccc1,6.11,2.91,11.6,5.12,4.64,12.5,6.58,14.7,6.18,7.3,2.9,5.9,10.7,8.66
O=c1c2cc(S(=O)(=O)O)ccc2nc(COc2ccc(Oc3ccc(Cl)cc3Cl)cc2)n1-c1ccc(Oc2ccc(Cl)cc2)cc1Cl,57,34,> 100,76,> 100,39.6,48.9,55.1,17.9,32.3,34.6,46.5,34.7,27
CCOC(=O)N1N=C(/C(C)=N/OC)C(C)S1=O (centres undefined),> 100,> 100,> 100,> 100,> 100,> 100,> 100,> 100,> 100,> 100,> 100,> 100,> 100,> 100
C[C@]12C[C@@H](OC(=O)[C@]1(C)O)[C@@H]([C@]1(O)CC[C@H]3[C@@H]4C[C@H]5O[C@]56C[C@H]5O[C@H]5C(=O)[C@]6(C)[C@H]4CC[C@@]31C)C2,> 50,> 50,> 50,> 50,> 50,> 50,> 50,> 50,> 50,> 50,> 50,> 50,> 50,> 50
Clc1cc(Cl)cc(N=C/C=C/Nc2cc(Cl)cc(Cl)c2)c1,57.3,30.2,44.3,49.7,30.2,35.9,32.8,51.9,36.8,58.9,34.2,86.4,48,71.7
CSC(=S)Nc1cccc(C)n1,> 100,> 100,> 100,> 100,> 100,> 100,> 100,> 100,> 100,> 100,> 100,> 100,> 100,> 100
CC1=NC(=Cc2ccccc2O)C(=O)N1n1c(-c2ccccc2)nc2ccccc2c1=O,> 100,> 100,> 100,> 100,> 100,> 100,> 100,> 100,> 100,87.3,61.4,> 100,34.6,> 100
O=C(c1ccccc1)N(C(=O)c1ccccc1)c1nc(SCc2ccccc2)ns1,73.9,40.3,> 100,52.6,> 100,91.8,78.7,86.8,> 100,44.1,30.6,57.9,42.9,23.7
N[C@H](C(=O)O)[C@@H]1CC(Br)=NO1,> 100,> 100,> 100,> 100,> 100,> 100,> 100,> 100,> 100,> 100,> 100,> 100,> 100,> 100
O=c1[nH]nc(Cc2ccccc2)n1C1CCCC1,> 100,> 100,> 100,> 100,> 100,> 100,> 100,> 100,> 100,> 100,> 100,> 100,> 100,> 100
O=[N+]([O-])c1ccc(C(=S)Nc2ccccc2)o1,32.2,2.79,19.9,6.35,6.88,7.63,15,17.6,15.2,4.58,23.2,10,11.4,5.73
c1cc2nnc1SCCCSc1ccc(nn1)SCCCS2,> 100,> 81.3,> 100,> 92.4,> 100,> 100,> 94.1,> 100,75.5,> 93.9,> 100,> 100,> 77.6,> 100
CC(=O)C1=CN=C2C(=O)N(c3ccccc3)N(C)C12C (centres undefined),> 100,> 100,> 100,> 100,46.8,> 100,> 100,> 100,> 100,> 100,> 100,> 100,> 100,> 100
Cc1cn(CCCCC2=NCCCN2)c(=O)[nH]c1=O,> 49.4,> 43.4,> 34.4,> 19.7,> 48.9,> 33.8,> 81.3,> 42.5,> 32.6,> 22,> 38.1,> 41,> 59.1,> 31
Oc1[nH]c2ccccc2c1N=NC(=S)Nc1ccccc1Cl,35.4,> 100,58.5,18.7,14.9,57.5,53,> 100,31.4,7.86,15.8,1.16,20.6,81.6
CCOC(=O)c1sc2nc(SC)nc3c2c1NCN3c1ccc2c(c1)OCO2,87.4,> 100,39.7,> 100,> 100,52.7,> 100,> 100,10.3,51.1,> 100,> 100,31.8,69.8
